Where a name gives a salt, the structure may show the parent alone.
Target: T1, guinea-pig B2 receptor (Cavia porcellus, UniProt O70526)
T1 construct: Ileum segments are isolated from male guinea-pigs of the Dunkin-Hartley strain; tissue Iffa Credo, l'Arbresle, France (animals); host or cells: ileum membranes of male Dunkin-Hartley guinea-pigs
T1 sequence (O70526 1-372): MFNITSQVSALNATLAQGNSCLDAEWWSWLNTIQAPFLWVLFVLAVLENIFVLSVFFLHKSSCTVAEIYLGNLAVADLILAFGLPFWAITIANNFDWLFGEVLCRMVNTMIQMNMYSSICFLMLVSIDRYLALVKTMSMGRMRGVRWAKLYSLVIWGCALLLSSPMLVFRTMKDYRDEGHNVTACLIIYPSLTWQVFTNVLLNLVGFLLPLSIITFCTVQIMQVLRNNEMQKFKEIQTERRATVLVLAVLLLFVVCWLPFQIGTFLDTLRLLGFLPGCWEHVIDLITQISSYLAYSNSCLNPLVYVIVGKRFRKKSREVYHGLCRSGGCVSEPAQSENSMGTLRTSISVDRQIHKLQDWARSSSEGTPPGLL
Experiment: [3H]-bradykinin binding to guinea-pig ileum membranes
Settings: test compound 10^-6 M; [3H]-bradykinin 120 pM; 50 μg membrane protein; 90 min at 20° C.; read-out: Activity % (percentage inhibition of the binding of [3H]-bradykinin)
Procedure: We used the following pharmacological test: Ileum segments are isolated from male guinea-pigs of the Dunkin-Hartley strain (Iffa Credo, l'Arbresle, France) and ground in the following TES buffer: TES 25 mM, 1,10-phenanthroline 1 mM (pH 6.8), bacitracin 140 μg/ml, BSA 1 g/l. The membranes are then isolated by centrifugation (18,000 rpm; 20 min; 4° C.). The binding studies are carried out in the TES buffer using [^3 H]-bradykinin (120 pM) and 50 μg of membrane protein per test (final volume 500 μl) with an equilibrium time of 90 min at 20° C.

Compound | inhibition at 1 µM [%]
Cc1ccc2cccc(OCc3c(Cl)ccc(S(=O)(=O)N(C)Cc4c[nH]c5ccccc45)c3Cl)c2n1 [Example 7, 2,4-Dichloro-N-methyl-N-[(indol-3-yl)methyl]-3-[(2-methylquinolin-8yl)oxymethyl]benzenesulfonamide] | 97.6
Cc1ccc2cccc(OCc3c(Cl)ccc(S(=O)(=O)N(C)Cc4ccc(N)cc4)c3Cl)c2n1 [Example 8, 2,4-Dichloro-N-methyl-N-[(4-aminophenyl)methyl]-3-[(2-methylquinolin-8-yl)oxymethyl]benzenesulfonamide dihydrochloride] | 99.5
Cc1ccc2cccc(OCc3c(Cl)ccc(S(=O)(=O)N(C)Cc4ccc(O)cc4)c3Cl)c2n1 [Example 9, 2,4-Dichloro-N-methyl-N-[(4-hydroxyphenyl)methyl]-3-[(2-methylquinolin-8-yl)oxymethyl]benzenesulfonamide] | 99.5
Cc1ccc2cccc(OCc3c(Cl)ccc(S(=O)(=O)N(C)Cc4cccc(C(N)=O)c4)c3Cl)c2n1 [Example 10, 2,4-Dichloro-N-methyl-N-[[3-(aminocarbonyl)phenyl]methyl]-3[(2-methylquinolin-8-yl)oxymethyl]benzenesulfonamide] | 99.8
CNC(=O)c1cccc(CN(C)S(=O)(=O)c2ccc(Cl)c(COc3cccc4ccc(C)nc34)c2Cl)c1 [Example 11, 2,4-Dichloro-N-methyl-N-[[3-(methylaminocarbonyl)phenyl]methyl]-3-[(2-methylquinolin-8-yl)oxymethyl]benzenesulfonamide] | 100
Cc1ccc2cccc(OCc3c(Cl)ccc(S(=O)(=O)N(C)Cc4cccc(C(=O)N(C)C)c4)c3Cl)c2n1 [Example 12, 2,4-Dichloro-N-methyl-N-[[3-[(dimethylamino)carbonyl]phenyl]methyl]-3-[(2-methylquinolin-8-yl)oxymethyl]benzenesulfonamide] | 96.9
Cc1ccc2cccc(OCc3c(Cl)ccc(S(=O)(=O)N(C)Cc4cccc(C(=O)NCCCO)c4)c3Cl)c2n1 [Example 13, 2,4-Dichloro-N-methyl-N-[[3-[(3-hydroxypropyl)aminocarbonyl]phenyl]-methyl]-3-[(2-methylquinolin-8-yl)oxymethyl]benzenesulfonamide] | 99.3
Cc1ccc2cccc(OCc3c(Cl)ccc(S(=O)(=O)N(C)Cc4cccc(C(=O)NCCN(C)C)c4)c3Cl)c2n1 [Example 14, 2,4-Dichloro-N-methyl-N-[[3-[[2-(dimethylamino)ethyl]aminocarbonyl]-phenyl]-methyl]-3-[(2-methylquinolin-8-yl)oxymethyl]benzenesulfonamide] | 100
Cc1ccc2cccc(OCc3c(Cl)ccc(S(=O)(=O)N(C)CCc4ccccc4)c3Cl)c2n1 [Example 15, 2,4Dichloro-N-methyl-N-(2-phenylethyl)-3-[(2-methylquinolin-8-yl)oxymethyl]benzenesulfonamide] | 97.9
Cc1ccc2cccc(OCc3c(Cl)ccc(S(=O)(=O)N(C)CCCCCCCN)c3Cl)c2n1 [Example 16, 2,4-Dichloro-N-methyl-N-(7-aminoheptyl)-3-[(2-methylquinolin-8-yl)oxymethyl]benzenesulfonamide bis(trifluoroacetate)] | 100
CNC(=O)CCCCCN(C)S(=O)(=O)c1ccc(Cl)c(COc2cccc3ccc(C)nc23)c1Cl [Example 19, 2,4-Dichloro-N-methyl-N-[6-(methylamino)-6-oxohexyl]-3-[(2-methylquinolin-8-yl)oxymethyl]benzenesulfonamide] | 99
Cc1ccc2cccc(OCc3c(Cl)ccc(S(=O)(=O)N(C)CCCCCCCCO)c3Cl)c2n1 [Example 20, 2,4-Dichloro-N-methyl-N-(8-hydroxyoctyl)-3-[(2-methylquinolin-8-yl)oxymethyl]benzenesulfonamide] | 95.7
Cc1ccc2cccc(OCc3c(Cl)ccc(S(=O)(=O)N(C)CCCCCCCCCCCCO)c3Cl)c2n1 [Example 21, 2,4-Dichloro-N-methyl-N-(12-hydroxydodecyl)-3-[(2-methylquinolin-8-yl)oxymethyl]benzenesulfonamide] | 94.3
Cc1ccc2cccc(OCc3c(Cl)ccc(S(=O)(=O)N(CCCCN)C(C)(C)C)c3Cl)c2n1 [Example 23, N-(4-Aminobutyl)-N-(1,1-dimethylethyl)-2,4-dichloro-3-[(2-methylquinolin-8-yl)oxymethyl]benzenesulfonamide] | 92.8
CC(=O)NCCCCN(C(C)(C)C)S(=O)(=O)c1ccc(Cl)c(COc2cccc3ccc(C)nc23)c1Cl [Example 24] | 90.5
Cc1ccc2cccc(OCc3c(Cl)ccc(S(=O)(=O)N(CCCCCCCO)Cc4ccccc4)c3Cl)c2n1 [Example 25, 2,4-Dichloro-N-(phenylmethyl)-N-(7-hydroxyheptyl)-3-[(2-methylquinolin-8-yl]oxymethyl]benzenesulfonamide] | 95.1
CNC(=O)CCCCCCCN(Cc1ccccc1)S(=O)(=O)c1ccc(Cl)c(COc2cccc3ccc(C)nc23)c1Cl [Example 28, 2,4-Dichloro-N-(phenylmethyl)-N-[8-(methylamino)-8-oxooctyl]-3-[(2-methylquinolin-8-yl)oxymethyl]benzenesulfonamide] | 98
